Reference: patent publication US20190127381A1, “SUBSTITUTED FUSED PYRIMIDINONE COMPOUNDS” (TORRENT PHARMACEUTICALS LIMITED, priority 2016, published 2019)

Key:
[1] = biological target: T1, purified recombinant human PI3K enzyme δ (Homo sapiens, UniProt O00329); experiment: Inhibition of PI3-Kinase enzymatic activity (HTRF enzyme assay), δ; type: biochemical; conditions: 1 μM compound; PI3K δ 50 ng/well; PIP2 10 μM; ATP 200 μM; read-out: Percentage inhibition of PI3K activity, δ
T1 construct: purchased Invitrogen, USA
T1 sequence (O00329 whole entry): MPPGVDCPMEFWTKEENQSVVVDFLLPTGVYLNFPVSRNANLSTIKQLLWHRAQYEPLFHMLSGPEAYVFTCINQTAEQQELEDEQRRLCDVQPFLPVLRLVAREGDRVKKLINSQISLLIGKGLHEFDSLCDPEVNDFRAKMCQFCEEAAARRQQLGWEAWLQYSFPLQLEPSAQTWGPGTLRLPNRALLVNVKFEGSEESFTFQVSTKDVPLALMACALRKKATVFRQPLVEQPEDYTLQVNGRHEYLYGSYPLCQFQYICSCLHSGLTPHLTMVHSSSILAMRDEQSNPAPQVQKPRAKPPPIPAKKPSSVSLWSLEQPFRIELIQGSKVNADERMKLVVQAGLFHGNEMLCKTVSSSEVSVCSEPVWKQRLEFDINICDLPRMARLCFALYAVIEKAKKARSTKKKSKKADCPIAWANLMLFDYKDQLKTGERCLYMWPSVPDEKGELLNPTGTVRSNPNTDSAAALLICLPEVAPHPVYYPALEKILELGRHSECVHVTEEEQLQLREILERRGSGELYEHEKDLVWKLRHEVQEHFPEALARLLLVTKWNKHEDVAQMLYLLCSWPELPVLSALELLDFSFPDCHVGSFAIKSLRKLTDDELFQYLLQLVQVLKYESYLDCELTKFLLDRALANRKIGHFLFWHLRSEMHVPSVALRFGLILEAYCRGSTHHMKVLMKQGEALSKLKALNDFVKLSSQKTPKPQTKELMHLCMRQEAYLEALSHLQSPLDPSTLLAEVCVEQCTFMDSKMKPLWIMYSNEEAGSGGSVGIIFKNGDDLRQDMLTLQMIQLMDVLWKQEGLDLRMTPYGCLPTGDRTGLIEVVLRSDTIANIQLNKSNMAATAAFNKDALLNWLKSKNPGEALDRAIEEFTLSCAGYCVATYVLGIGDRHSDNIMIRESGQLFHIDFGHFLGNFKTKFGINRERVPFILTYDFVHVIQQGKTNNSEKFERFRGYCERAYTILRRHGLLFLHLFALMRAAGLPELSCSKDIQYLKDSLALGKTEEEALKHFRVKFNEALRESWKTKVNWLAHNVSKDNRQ
T1 sequence (P27986 whole entry partner): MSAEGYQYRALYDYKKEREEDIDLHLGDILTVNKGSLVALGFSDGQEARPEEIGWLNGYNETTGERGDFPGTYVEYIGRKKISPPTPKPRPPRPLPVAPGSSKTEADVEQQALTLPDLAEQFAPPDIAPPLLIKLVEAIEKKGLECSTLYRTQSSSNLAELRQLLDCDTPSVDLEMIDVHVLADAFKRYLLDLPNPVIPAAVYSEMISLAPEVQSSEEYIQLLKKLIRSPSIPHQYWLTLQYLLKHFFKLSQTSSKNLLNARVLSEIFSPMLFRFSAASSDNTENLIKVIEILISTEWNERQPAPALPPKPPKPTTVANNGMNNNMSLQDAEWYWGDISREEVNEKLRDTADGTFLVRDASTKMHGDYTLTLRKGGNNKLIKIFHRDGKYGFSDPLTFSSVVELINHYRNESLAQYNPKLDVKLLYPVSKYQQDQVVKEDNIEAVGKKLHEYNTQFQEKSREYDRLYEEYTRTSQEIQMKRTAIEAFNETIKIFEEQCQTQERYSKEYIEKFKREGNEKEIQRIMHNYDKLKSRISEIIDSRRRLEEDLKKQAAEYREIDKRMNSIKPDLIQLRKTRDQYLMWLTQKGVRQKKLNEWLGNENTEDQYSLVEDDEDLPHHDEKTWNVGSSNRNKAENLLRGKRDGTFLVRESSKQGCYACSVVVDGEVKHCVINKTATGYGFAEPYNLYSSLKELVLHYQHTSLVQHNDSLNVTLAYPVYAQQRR
How it was run: (§1)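 HTRF assay with compound at 1 μM (1.0% DMSO), recombinant human PI3Kδ (50 ng/well) or γ (100 ng/well) and PIP2 (10 μM), preincubated 15 min at room temperature. ATP (δ 200 μM, γ 50 μM) was then added for 30 min at room temperature. Percent inhibition was derived from the 665/615 nm signal ratio.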

[2] = biological target: T2, purified recombinant human PI3K enzyme γ (Homo sapiens, UniProt P48736); experiment: Inhibition of PI3-Kinase enzymatic activity (HTRF enzyme assay), γ; type: biochemical; conditions: 1 μM compound; PI3K γ 100 ng/well; PIP2 10 μM; ATP 50 μM; read-out: Percentage inhibition of PI3K activity, γ
T2 construct: purchased Invitrogen, USA
T2 sequence (P48736 whole entry): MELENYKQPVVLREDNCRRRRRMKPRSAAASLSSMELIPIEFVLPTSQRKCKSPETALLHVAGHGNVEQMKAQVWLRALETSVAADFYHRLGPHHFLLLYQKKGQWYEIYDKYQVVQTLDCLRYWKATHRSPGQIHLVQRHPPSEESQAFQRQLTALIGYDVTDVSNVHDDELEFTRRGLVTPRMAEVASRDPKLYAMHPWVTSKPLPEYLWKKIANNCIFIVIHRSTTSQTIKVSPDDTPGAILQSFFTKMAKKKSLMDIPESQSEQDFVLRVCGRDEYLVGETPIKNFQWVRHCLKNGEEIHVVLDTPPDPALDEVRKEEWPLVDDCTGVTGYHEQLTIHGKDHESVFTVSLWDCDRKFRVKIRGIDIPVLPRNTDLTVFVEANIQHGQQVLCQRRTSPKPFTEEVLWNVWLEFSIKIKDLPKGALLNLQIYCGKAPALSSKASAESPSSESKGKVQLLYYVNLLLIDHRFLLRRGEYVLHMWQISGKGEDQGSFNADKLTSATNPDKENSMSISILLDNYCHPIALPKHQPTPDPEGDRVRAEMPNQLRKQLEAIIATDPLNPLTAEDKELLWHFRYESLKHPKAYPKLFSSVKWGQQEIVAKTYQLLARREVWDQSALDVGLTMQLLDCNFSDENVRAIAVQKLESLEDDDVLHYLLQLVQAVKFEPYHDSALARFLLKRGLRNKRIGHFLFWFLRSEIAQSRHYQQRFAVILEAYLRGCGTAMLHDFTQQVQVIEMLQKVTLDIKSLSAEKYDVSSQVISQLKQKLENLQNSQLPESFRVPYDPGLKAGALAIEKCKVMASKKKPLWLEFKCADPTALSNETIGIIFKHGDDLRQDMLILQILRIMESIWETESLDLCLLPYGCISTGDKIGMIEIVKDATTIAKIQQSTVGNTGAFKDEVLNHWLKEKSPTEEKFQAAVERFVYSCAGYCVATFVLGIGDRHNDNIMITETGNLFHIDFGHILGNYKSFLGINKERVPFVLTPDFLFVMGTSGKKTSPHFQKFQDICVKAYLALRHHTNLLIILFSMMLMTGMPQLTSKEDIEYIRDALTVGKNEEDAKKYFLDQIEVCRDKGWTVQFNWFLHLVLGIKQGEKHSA
How it was run: as §1

Row | Structure (SMILES) | inhibition at 1 µM [1] [%] | inhibition at 1 µM [2] [%]
1 | CC1(C)Cc2c(-c3nn(Cc4nc5cccc(F)c5c(=O)n4C4(c5ccccc5)CC4)c4ncnc(N)c34)ccc(O)c2O1 [compound 26, 2-{[4-amino-3-(7-hydroxy-2,2-dimethyl-2,3-dihydro-1-benzofuran-4-yl)-1H-pyrazolo[3,4-d]pyrimidin-1-yl]methyl}-5-fluoro-3-(1-phenylcyclopropyl)quinazolin-4(3H)-one] | 80 to 100 | 40 to 60
2 | Cc1cccc2nc([C@H](C)n3nc(-c4ccc(O)c5c4CC(C)(C)O5)c4c(N)ncnc43)n(-n3c(C)ccc3C)c(=O)c12 [compound 95, 2-{(1S)-1-[4-amino-3-(7-hydroxy-2,2-dimethyl-2,3-dihydro-1-benzofuran-4-yl)-1H-pyrazolo[3,4-d]pyrimidin-1-yl]ethyl}-3-(2,5-dimethyl-1H-pyrrol-1-yl)-5-methylquinazolin-4(3H)-one] | 80 to 100 | 80 to 100
3 | Cc1cccc(C2(n3c(Cn4nc(-c5ccc(O)c6c5CC(C)(C)O6)c5c(N)ncnc54)nc4cccc(C#CCO)c4c3=O)CC2)c1 [compound 31, 2-{[4-amino-3-(7-hydroxy-2,2-dimethyl-2,3-dihydro-1-benzofuran-4-yl)-1H-pyrazolo[3,4-d]pyrimidin-1-yl]methyl}-5-(3-hydroxyprop-1-yn-1-yl)-3-[1-(3-methylphenyl)cyclopropyl]quinazolin-4(3H)-one] | 80 to 100 | 60 to 80
4 | CC1(C)Cc2c(-c3nn(Cc4nc5cccc(-c6cccnc6)c5c(=O)n4-n4cccc4)c4ncnc(N)c34)ccc(O)c2O1 [compound 10, 2-{[4-amino-3-(7-hydroxy-2,2-dimethyl-2,3-dihydro-1-benzofuran-4-yl)-1H-pyrazolo[3,4-d]pyrimidin-1-yl]methyl}-5-(pyridin-3-yl)-3-(1H-pyrrol-1-yl)quinazolin-4(3H)-one] | 80 to 100 | 60 to 80
5 | Cc1cccc2nc(C(C)n3nc(-c4ccc(O)c5c4CC(C)(C)O5)c4c(N)ncnc43)n(-n3cccc3)c(=O)c12 (racemic) [compound 96, 2-{(1RS)-1-[4-amino-3-(7-hydroxy-2,2-dimethyl-2,3-dihydro-1-benzofuran-4-yl)-1H-pyrazolo[3,4-d]pyrimidin-1-yl]ethyl}-5-methyl-3-(1H-pyrrol-1-yl)quinazolin-4(3H)-one] | 80 to 100 | 80 to 100
6 | CC1(C)Cc2c(-c3nn(Cc4nc5cccc(C#CCO)c5c(=O)n4C4(c5ccccc5)CC4)c4ncnc(N)c34)ccc(O)c2O1 [compound 24, 2-{[4-amino-3-(7-hydroxy-2,2-dimethyl-2,3-dihydro-1-benzofuran-4-yl)-1H-pyrazolo[3,4-d]pyrimidin-1-yl]methyl}-5-(3-hydroxyprop-1-yn-1-yl)-3-(1-phenylcyclopropyl)quinazolin-4(3H)-one] | 80 to 100 | 80 to 100
7 | CC1(C)Cc2c(-c3nn(Cc4nc5cccc(-c6cccnc6)c5c(=O)n4C4(c5ccccc5)CC4)c4ncnc(N)c34)ccc(O)c2O1 [compound 16, 2-{[4-amino-3-(7-hydroxy-2,2-dimethyl-2,3-dihydro-1-benzofuran-4-yl)-1H-pyrazolo[3,4-d]pyrimidin-1-yl]methyl}-3-(1-phenylcyclopropyl)-5-(pyridin-3-yl)quinazolin-4(3H)-one] | 80 to 100 | 60 to 80
8 | CC1(C)Cc2c(-c3nn(Cc4nc5cccc(-c6ccsc6)c5c(=O)n4C4(c5ccccc5)CC4)c4ncnc(N)c34)ccc(O)c2O1 [compound 25, 2-{[4-amino-3-(7-hydroxy-2,2-dimethyl-2,3-dihydro-1-benzofuran-4-yl)-1H-pyrazolo[3,4-d]pyrimidin-1-yl]methyl}-3-(1-phenylcyclopropyl)-5-(thiophen-3-yl)quinazolin-4(3H)-one] | 80 to 100 | 80 to 100
9 | Cc1ccc(-c2cccc3nc(Cn4nc(-c5ccc(O)c6c5CC(C)(C)O6)c5c(N)ncnc54)n(-n4cccc4)c(=O)c23)o1 [compound 15, 2-{[4-amino-3-(7-hydroxy-2,2-dimethyl-2,3-dihydro-1-benzofuran-4-yl)-1H-pyrazolo[3,4-d]pyrimidin-1-yl]methyl}-5-(5-methylfuran-2-yl)-3-(1H-pyrrol-1-yl)quinazolin-4(3H)-one] | 80 to 100 | 80 to 100
10 | CC1(C)Cc2c(-c3nn(Cc4nc5cccc(C#CC6CC6)c5c(=O)n4-n4cccc4)c4ncnc(N)c34)ccc(O)c2O1 [compound 48, 2-{[4-amino-3-(7-hydroxy-2,2-dimethyl-2,3-dihydro-1-benzofuran-4-yl)-1H-pyrazolo[3,4-d]pyrimidin-1-yl]methyl}-5-(cyclopropylethynyl)-3-(1H-pyrrol-1-yl)quinazolin-4(3H)-one] | 80 to 100 | 80 to 100
11 | CC1(C)Cc2c(-c3nn(Cc4nc5cccc(Br)c5c(=O)n4-n4cccc4)c4ncnc(N)c34)ccc(O)c2O1 [Compound No. 9, 2-{[4-amino-3-(7-hydroxy-2,2-dimethyl-2,3-dihydro-1-benzofuran-4-yl)-1H-pyrazolo[3,4-d]pyrimidin-1-yl]methyl}-5-bromo-3-(1H-pyrrol-1-yl)quinazolin-4(3H)-one] | 80 to 100 | 80 to 100
12 | CC(=O)NCC#Cc1cccc2nc(Cn3nc(-c4ccc(O)c5c4CC(C)(C)O5)c4c(N)ncnc43)n(-n3cccc3)c(=O)c12 [compound 28, N-{3-[2-{[4-amino-3-(7-hydroxy-2,2-dimethyl-2,3-dihydro-1-benzofuran-4-yl)-1H-pyrazolo[3,4-d]pyrimidin-1-yl]methyl}-4-oxo-3-(1H-pyrrol-1-yl)-3,4-dihydroquinazolin-5-yl]prop-2-yn-1-yl}acetamide] | 80 to 100 | 80 to 100
13 | Cc1ccc(C)n1-n1c(Cn2nc(-c3ccc(O)c4c3CC(C)(C)O4)c3c(N)ncnc32)nc2cccc(C#CCN3CCN(C)CC3)c2c1=O [compound 57, 2-{[4-amino-3-(7-hydroxy-2,2-dimethyl-2,3-dihydro-1-benzofuran-4-yl)-1H-pyrazolo[3,4-d]pyrimidin-1-yl]methyl}-3-(2,5-dimethyl-1H-pyrrol-1-yl)-5-[3-(4-methylpiperazin-1-yl)prop-1-yn-1-yl]quinazolin-4(3H)-one] | 80 to 100 | 60 to 80
14 | CC1(C)Cc2c(-c3nn(Cc4nc5cccc(C#CCNC(=O)C6CC6)c5c(=O)n4-n4cccc4)c4ncnc(N)c34)ccc(O)c2O1 [compound 29, N-{3-[2-{[4-amino-3-(7-hydroxy-2,2-dimethyl-2,3-dihydro-1-benzofuran-4-yl)-1H-pyrazolo[3,4-d]pyrimidin-1-yl]methyl}-4-oxo-3-(1H-pyrrol-1-yl)-3,4-dihydroquinazolin-5-yl]prop-2-yn-1-yl}cyclopropanecarboxamide] | 80 to 100 | 80 to 100
15 | Cc1ccc(C)n1-n1c(Cn2nc(-c3ccc(O)c4c3CC(C)(C)O4)c3c(N)ncnc32)nc2cccc(C#CCN3CCOCC3)c2c1=O [compound 80, 2-{[4-amino-3-(7-hydroxy-2,2-dimethyl-2,3-dihydro-1-benzofuran-4-yl)-1H-pyrazolo[3,4-d]pyrimidin-1-yl]methyl}-3-(2,5-dimethyl-1H-pyrrol-1-yl)-5-[3-(morpholin-4-yl)prop-1-yn-1-yl]quinazolin-4(3H)-one] | 80 to 100 | 60 to 80
16 | CC1(C)Cc2c(-c3nn(Cc4nc5cccc(C#CCO)c5c(=O)n4-n4cccc4)c4ncnc(N)c34)ccc(O)c2O1 [compound 19, 2-{[4-amino-3-(7-hydroxy-2,2-dimethyl-2,3-dihydro-1-benzofuran-4-yl)-1H-pyrazolo[3,4-d]pyrimidin-1-yl]methyl}-5-(3-hydroxyprop-1-yn-1-yl)-3-(1H-pyrrol-1-yl)quinazolin-4(3H)-one] | 80 to 100 | 80 to 100
17 | Cn1cccc1-c1cccc2nc(Cn3nc(-c4ccc(O)c5c4CC(C)(C)O5)c4c(N)ncnc43)n(-n3cccc3)c(=O)c12 [compound 71, 2-{[4-amino-3-(7-hydroxy-2,2-dimethyl-2,3-dihydro-1-benzofuran-4-yl)-1H-pyrazolo[3,4-d]pyrimidin-1-yl]methyl}-5-(1-methyl-1H-pyrrol-2-yl)-3-(1H-pyrrol-1-yl)quinazolin-4(3H)-one] | 80 to 100 | 80 to 100
18 | Cc1ccc(C)n1-n1c(Cn2nc(-c3ccc(O)c4c3CCC4)c3c(N)ncnc32)nc2cccc(-c3cnn(C)c3)c2c1=O [compound 93, 2-{[4-amino-3-(7-hydroxy-2,3-dihydro-1H-inden-4-yl)-1H-pyrazolo[3,4-d]pyrimidin-1-yl]methyl}-3-(2,5-dimethyl-1H-pyrrol-1-yl)-5-(1-methyl-1H-pyrazol-4-yl)quinazolin-4(3H)-one] | 80 to 100 | 80 to 100
